According to patent US9464098B2, “Substituted triazole boronic acid compounds” (Hoffmann-La Roche Inc., priority 2012, dated 2016):

Experiments:
[1] = system: DSS-induced colitis model in mice; settings: cited from earlier work
[2] = system: Th1/17 differentiation, B cell effector functions and production of inflammatory cytokines (IL-6, TNF-α, IL-23); settings: cited from earlier work
[3] = system: mouse CAIA and CIA arthritis models; settings: cited from earlier work
MRL/lpr lupus-prone mice = settings: cited from earlier work
[4] = target: T1, β5c (chymotrypsin-like activity) (Homo sapiens, UniProt P20618+P28074); assay: Cell-Based Proteasome Activity/Selectivity Assay (Ramos cells), substrate (WLA)2Rh110; settings: β 5c substrate (WLA)2Rh110, highest concentration tested 20 μM
T1 construct: protease activity associated with the proteasome complex in cultured cells; endogenous in cells; host or cells: Ramos cells
Description: (§1) Cell-Based Proteasome Activity/Selectivity Assay
(§2) The Cell-Based Proteasome subunit activity/selectivity assay was a panel of 5 fluorogenic assays that independently measured the activity of β5c or β 5i (chymotrypsin-like activity), β 2c/2i (trypsin-like), and β 1c or β 1i (caspase-like) protease activity associated with the proteasome complex in cultured cells. Specifically, the following substrates were used for respective subunit activities: β 1i: (PAL)2Rh110, β 1c: (LLE)2Rh110, β 2c/2i: (KQL)2Rh110, β 5c: (WLA)2Rh110, β 5i: (ANW)2Rh110. The following procedure was followed:
(§3) Cell preparation: Plated 25 μl of Ramos cells (2×10^6/ml in DPBS) into half area plate (PerkinElmer Cat 6005569) to final 5×10^4 cells/well. Added 0.5 μl of 100× 4-fold serial diluted test compounds or DMSO to each well. Highest concentration of compound tested was 20 μM, thus compound serial dilution started from […]. Incubated for 30 minutes at 37° C. Then equilibrated at room temperature for 15 minutes. Added 25 μl of 2× reaction mix consisting of 0.025% digitonin, 20 μM of each substrates and 0.5M sucrose in DPBS. Shaked for one minute @ 700 rpm. Incubated for 120 min at room temperature. Then read the plates with an Envision multilabel plate reader (PerkinElmer) with 500 nm excitation/519 nm emission.

[5] = system: IP10 level in PBMCs stimulated with CpG Type A; assay: PBMC IP-10 Assay; type: cell-based; settings: PBMCs stimulated with CpG Type A 2.5 μM, overnight, IP10 AlphaLISA
Experimental: PBMCs were isolated from whole blood as follows: Blood was collected in a sterile environment in heparinized tubes. Blood was diluted with an equal volume PBS/2% FCS and 30 ml of this mixture was added to ACCUSPIN tubes containing 15 ml Histopaque-1077 already centrifuged at 800 g for 30 seconds and warmed up at room temperature. The tubes were then centrifuged at 800 g for 20 minutes at room temperature with no brake. The mononuclear band, just above the polyethylene frit, was removed by Pasteur pipet. These mononuclear cells were washed three times with sterile PBS, counted, and resuspended in RPMI 1640 supplemented with 10% heat inactivated fetal calf serum, 10 mM HEPES, 1 mM sodium pyruvate, penicillin (50 U/ml), streptomycin (50 μg/ml) and glutamine (2 mM) to approximately 1.5×10^6/ml. Approximately 2×10^5 cells/well were plated in 96 well tissue culture plates (BD Falcon 353072), and preincubated 60 mi/37° C. with a titration of compounds, in a final concentration of 1% DMSO. Cells were then stimulated with CpG Type A (Invivogen, Cat # tlrl-2216; ODN 2216) at a final concentration of 2.5 μM. Cells were incubated overnight, and supernatants were removed. PBMC viability of cells remaining in the well was measured with ATPlite luminescence assay (Perkin-Elmer) per the manufacturer's instructions. Luminescence was measured on the Perkin-Elmer Envision, using the luminescence filter. IP10 level was measured with CXCL10/IP10 AlphaLISA kit (Perkin-Elmer) per the manufacturer's instructions, except halving all volumes. Fluorescence was measured on the Envision Multilabel plate reader, using the AlphaScreen standard settings.

[6] = target: T2, β 5i (chymotrypsin-like activity) (Homo sapiens, UniProt P20618+P28062); assay: Cell-Based Proteasome Activity/Selectivity Assay (Ramos cells), substrate (ANW)2Rh110; settings: β 5i substrate (ANW)2Rh110, highest concentration tested 20 μM, read-out: Ic50: ramos:ac-(anw)2-r110
T2 construct: protease activity associated with the proteasome complex in cultured cells; endogenous in cells; host or cells: Ramos cells
Description: as §1, §2, §3

β 1i (caspase-like) = target: T3, β 1i (caspase-like) (Homo sapiens, UniProt P28065+P40306); assay: Cell-Based Proteasome Activity/Selectivity Assay (Ramos cells), substrate (PAL)2Rh110; settings: β 1i substrate (PAL)2Rh110, highest concentration tested 20 μM
T3 construct: protease activity associated with the proteasome complex in cultured cells; endogenous in cells; host or cells: Ramos cells
Description: as §1, §2, §3

β 2c/2i (trypsin-like) = assay: Cell-Based Proteasome Activity/Selectivity Assay (Ramos cells), substrate (KQL)2Rh110; settings: β 2c/2i substrate (KQL)2Rh110, highest concentration tested 20 μM
Description: as §1, §2, §3

β 1c (caspase-like) = target: T4, β 1c (caspase-like) (Homo sapiens, UniProt P28072+Q99436); assay: Cell-Based Proteasome Activity/Selectivity Assay (Ramos cells), substrate (LLE)2Rh110; settings: β 1c substrate (LLE)2Rh110, highest concentration tested 20 μM
T4 construct: protease activity associated with the proteasome complex in cultured cells; endogenous in cells; host or cells: Ramos cells
Description: as §1, §2, §3

SMILES	inflammation and tissue destruction [1]	block of Th1/17 differentiation, B cell effector functions and production of inflammatory cytokines [2]	disease score [3]	disease progression (MRL/lpr lupus-prone mice)	plasma cells numbers and levels of anti-dsDNA IgG (MRL/lpr lupus-prone mice)	IC50 [4] [µM]	EC50 [5] [µM]	IC50 [6] [µM]	IC50 (β 1i (caspase-like)) [µM]	IC50 (β 2c/2i (trypsin-like)) [µM]	IC50 (β 1c (caspase-like)) [µM]
COc1ccc(C[C@H](NC(=O)[C@H](C)NC(=O)CN2CCOCC2)C(=O)N[C@@H](Cc2ccccc2)C(=O)[C@@]2(C)CO2)cc1 [PR-957]	reduced inflammation and tissue destruction	potently block	significantly decrease disease score	prevented disease progression	reduced plasma cells numbers and levels of anti-dsDNA IgG						
COc1ccc(C(=O)NCCn2cc(C(=O)N[C@@H](CC(C)C)B(O)O)nn2)c(OC)c1OC [Example 1, (R)-3-Methyl-1-(1-(2-(2,3,4-trimethoxybenzamido)ethyl)-1H-1,2,3-triazole-4-carboxamido)butylboronic acid]						0.039	0.0295	0.002	0.004	> 20	0.32
O=C(N[C@@H](Cc1ccccc1)B(O)O)c1cn(CCNC(=O)c2ccc(C(F)(F)F)cc2F)nn1 [Example 3, (R)-1-(1-(2-(2-Fluoro-4-(trifluoromethyl)benzamido)ethyl)-1H-1,2,3-triazole-4-carboxamido)-2-phenylethylboronic acid]						0.006	0.0268	0.002	0.01	> 20	7.34
COc1ccc(C(=O)NCCn2cc(C(=O)N[C@@H](Cc3ccccc3)B(O)O)nn2)c(OC)c1OC [Example 2, (R)-2-Phenyl-1-(1-(2-(2,3,4-trimethoxybenzamido)ethyl)-1H-1,2,3-triazole-4-carboxamido)ethylboronic acid]						0.016	0.0337	0.007	0.025	13.5	6.63
COc1cc(C(F)(F)F)ccc1C(=O)NCCn1cc(C(=O)N[C@@H](Cc2ccccc2)B(O)O)nn1 [Example 4, (R)-1-(1-(2-(2-Methoxy-4-(trifluoromethyl)benzamido)ethyl)-1H-1,2,3-triazole-4-carboxamido)-2-phenylethylboronic acid]						0.02	0.0123	0.002	0.009	> 20	7.48
